Reference: US4740233A, “Substituted 1,2,4-triazolo[1,5-a]-pyrimidine-2-sulfonamides and compositions and methods of controlling undesired vegetation and suppressing the nitrification of ammonium nitrogen in soil” (The Dow Chemical Company, priority 1986, dated 1988)

Tests used:
wild oats = experiment: Preemergent control of plant species; type: in vivo; conditions: Avena fatua, pre-emergence, 336 h; 0.25 lb/acre; read-out: percent preemergent control
Protocol: The seeds of various species of plants were planted in beds of good agricultural soil in a greenhouse. A number of compositions of the present invention, generally in the nature of an aqueous emulsion, were applied at rates listed in the table so as to deposit a predetermined amount of active ingredients uniformly throughout the surface of the bed. Another seed bed was treated only with water to serve as a control. After treatment the seed beds were maintained for two weeks under greenhouse conditions conducive for good plant growth and watered as necessary. Control refers to the reduction in growth compared to the observed results of the same untreated species.

barnyardgrass = experiment: Preemergent control of plant species; type: in vivo, Echinochloa crusgalli; conditions: Echinochloa crus-galli, pre-emergence, 336 h; 0.25 lb/acre; read-out: percent preemergent control
Method in brief: (§1)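 Test compositions were applied evenly to the surface of freshly seeded soil beds and kept under greenhouse conditions for two weeks. Percent control reflects growth reduction compared with water-treated beds of the same species.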

corn = experiment: Preemergent control of plant species; type: in vivo, Zea mays; conditions: Zea mays, pre-emergence, 336 h; 0.25 lb/acre; read-out: percent preemergent control
Method in brief: as §1

rice = experiment: Preemergent control of plant species; type: in vivo, Oryza sativa; conditions: Oryza sativa, pre-emergence, 336 h; 0.25 lb/acre; read-out: percent preemergent control
Method in brief: as §1

annual morning glory = experiment: Preemergent control of plant species; type: in vivo, Ipomoea spp.; conditions: Ipomoea, pre-emergence, 336 h; 0.25 lb/acre; read-out: percent preemergent control
Method in brief: as §1

jimsonweed = experiment: Preemergent control of plant species; type: in vivo, Datura stramonium; conditions: Datura stramonium, pre-emergence, 336 h; 0.25 lb/acre; read-out: percent preemergent control
Method in brief: as §1

yellow nutsedge = experiment: Preemergent control of plant species; type: in vivo, Cyperus esculentus; conditions: Cyperus, pre-emergence, 336 h; 0.25 lb/acre; read-out: percent preemergent control
Method in brief: as §1

rape = experiment: Preemergent control of plant species; type: in vivo, Brassica napus; conditions: Brassica napus, pre-emergence, 336 h; 0.25 lb/acre; read-out: percent preemergent control
Method in brief: as §1

soybean = experiment: Preemergent control of plant species; type: in vivo, Glycine max.; conditions: Glycine max, pre-emergence, 336 h; 0.25 lb/acre; read-out: percent preemergent control
Method in brief: as §1

velvetleaf = experiment: Preemergent control of plant species; type: in vivo, Abutilon theophrasti; conditions: Abutilon theophrasti, pre-emergence, 336 h; 0.25 lb/acre; read-out: percent preemergent control
Method in brief: as §1

sugar beet = experiment: Preemergent control of plant species; type: in vivo, Beta saccharifera; conditions: Beta vulgaris, pre-emergence, 336 h; 0.25 lb/acre; read-out: percent preemergent control
Method in brief: as §1

wheat = experiment: Preemergent control of plant species; type: in vivo, Triticum aestivum; conditions: Triticum aestivum, pre-emergence, 336 h; 0.25 lb/acre; read-out: percent preemergent control
Method in brief: as §1

yellow foxtail = experiment: Preemergent control of plant species; type: in vivo, Setaria lutescens; conditions: Setaria, pre-emergence, 336 h; 0.25 lb/acre; read-out: percent preemergent control
Method in brief: as §1

cotton = experiment: Preemergent control of plant species; type: in vivo, Gossypium spp.; conditions: Gossypium hirsutum, pre-emergence, 336 h; 0.25 lb/acre; read-out: percent preemergent control
Method in brief: as §1

johnson grass = experiment: Preemergent control of plant species; type: in vivo, Sorghum halepense; conditions: Sorghum halepense, pre-emergence, 336 h; 0.25 lb/acre; read-out: percent preemergent control
Method in brief: as §1

sorghum = experiment: Preemergent control of plant species; type: in vivo, Sorghum vulgare; conditions: Sorghum, pre-emergence, 336 h; 0.25 lb/acre; read-out: percent preemergent control
Method in brief: as §1

[1] = tested on: nitrification of ammonium nitrogen; experiment: Suppression of nitrification of ammonium nitrogen in soil; conditions: 27° C.
Method in brief: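 Value is % NH4-N remaining after a two-week, 27° C incubation of treated soil held at 1/3 bar tension moisture. Nitrate was measured with an ion-selective electrode after extraction with ammonium sulfate solution and 10 min shaking.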

| Compound | pest or weed control at 280.212 g/ha (wild oats) [%] | pest or weed control at 280.212 g/ha (barnyardgrass) [%] | plant injury at 280.212 g/ha (corn) [%] | plant injury at 280.212 g/ha (rice) [%] | pest or weed control at 280.212 g/ha (annual morning glory) [%] | pest or weed control at 280.212 g/ha (jimsonweed) [%] | pest or weed control at 280.212 g/ha (yellow nutsedge) [%] | plant injury at 280.212 g/ha (rape) [%] | plant injury at 280.212 g/ha (soybean) [%] | pest or weed control at 280.212 g/ha (velvetleaf) [%] | plant injury at 280.212 g/ha (sugar beet) [%] | plant injury at 280.212 g/ha (wheat) [%] | pest or weed control at 280.212 g/ha (yellow foxtail) [%] | plant injury at 280.212 g/ha (cotton) [%] | pest or weed control at 280.212 g/ha (johnson grass) [%] | plant injury at 280.212 g/ha (sorghum) [%] | % NH4-N Remaining After 2 Weeks Incubation ([1]; 0.06 ppm) [%] | % NH4-N Remaining After 2 Weeks Incubation ([1]; 0.25 ppm) [%] | % NH4-N Remaining After 2 Weeks Incubation ([1]; 1 ppm) [%] | % NH4-N Remaining After 2 Weeks Incubation ([1]; 4 ppm) [%] |
| --- | --- | --- | --- | --- | --- | --- | --- | --- | --- | --- | --- | --- | --- | --- | --- | --- | --- | --- | --- | --- |
| CCOCCOC(=O)c1cccc(C)c1NS(=O)(=O)c1nc2nc(C)cc(C)n2n1 [Compound 72] | 90 | 30 | 90 | 70 | 10 | 100 | 100 | 100 | 90 | 60 | 90 | 90 | 50 | 40 | 50 | 80 |  |  |  |  |
| COC(=O)c1ccc(C)c(NS(=O)(=O)c2nc3nc(C)cc(C)n3n2)c1Br [Compound 86, methyl 3-amino-2-bromo-4-methyl-N-(5,7-dimethyl-1,2,4-triazolo[1,5-a]pyrimidine-2-sulfonyl)benzoate] | 0 | 0 | 0 | 0 | 0 | 100 | 0 | 100 | 20 | 0 | 100 | 0 | 0 | 0 | 0 | 0 |  |  |  |  |
| CC(=O)OCc1cccc(Cl)c1NS(=O)(=O)c1nc2nc(C)cc(C)n2n1 [Compound 94, 5,7-dimethyl-N-(2-acetoxymethyl-6-chlorophenyl)-1,2,4-triazolo[1,5-a]pyrimidine-2-sulfonamide] | 0 | 0 | 0 | 0 | 0 | 0 | 0 | 100 | 50 | 0 | 0 |  | 0 | 60 | 0 | 0 | 28 | 48 | 56 | 84 |
| Cc1ccn2nc(S(=O)(=O)Nc3c(C)cccc3C#N)nc2n1 [Compound 165] | 0 | 60 | 0 | 0 | 60 | 90 | 90 | 75 | 10 | 30 | 90 | 0 | 90 | 90 | 0 | 60 |  |  |  |  |
| CC(=O)c1cccc(C)c1NS(=O)(=O)c1nc2nc(C)ccn2n1 [Compound 166] | 30 | 80 | 10 | 40 | 95 | 90 | 100 | 100 | 80 | 100 | 100 | 20 | 80 | 100 | 20 | 80 |  |  |  |  |
| Cc1ccnc2nc(S(=O)(=O)Nc3c(F)cccc3Cl)nn12 [Compound 181] | 40 | 20 | 0 | 30 | 80 | 98 | 50 | 100 | 80 | 98 | 98 | 0 | 80 | 98 | 60 | 95 |  |  |  |  |
| Cc1cccc([N+](=O)[O-])c1NS(=O)(=O)c1nc2nccc(C)n2n1 [Compound 184] | 0 | 0 | 0 | 0 | 80 | 98 | 80 | 98 | 50 | 100 | 100 | 0 | 80 | 100 | 30 | 95 |  |  |  |  |
| Cc1ccnc2nc(S(=O)(=O)Nc3c(F)cccc3F)nn12 [Compound 185] | 0 | 20 | 0 | 20 | 80 | 90 | 0 | 100 | 70 | 100 | 98 | 0 |  | 98 | 90 | 90 |  |  |  |  |
| CC(=O)N(c1c(Cl)cccc1Cl)S(=O)(=O)c1nc2nc(C)ccn2n1 [Compound 268] | 30 |  | 80 | 100 | 90 | 100 | 100 | 100 | 0 | 100 | 100 |  | 100 | 100 | 80 | 100 | 53 | 71 | 80 | 92 |
| Cc1ccn2nc(S(=O)(=O)N(C(=O)C3CC3)c3c(F)cccc3F)nc2n1 [Compound 289] | 100 | 100 | 95 |  | 100 | 100 | 100 | 100 | 50 | 100 | 100 | 80 | 100 | 100 | 100 | 100 |  |  |  |  |
